According to patent US9284333B2, “Fused pyrroledicarboxamides and their use as pharmaceuticals” (SANOFI, priority 2012, dated 2016):

Target: Human TASK-1 channels (Homo sapiens (Human), UniProt O14649)
Test: Determination of the activity on the TASK-1 channel in Xenopus oocytes (two-microelectrode voltage clamp)
Format: cell-based
Conditions: human TASK-1 expressed in Xenopus oocytes, room temperature; read-out: IC50 value for TASK-1 inhibition
In short: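 Xenopus oocytes were injected with human TASK-1 cRNA and recorded two days later by two-microelectrode voltage clamp, holding at −90 mV with 500 ms steps to 40 mV. Superfusion used ND96, pH 7.4, at room temperature, with rising compound concentrations; percentage inhibition of control current was fitted to a dose-response curve for IC50.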

Human TASK-1 channels, sequence (O14649 whole entry): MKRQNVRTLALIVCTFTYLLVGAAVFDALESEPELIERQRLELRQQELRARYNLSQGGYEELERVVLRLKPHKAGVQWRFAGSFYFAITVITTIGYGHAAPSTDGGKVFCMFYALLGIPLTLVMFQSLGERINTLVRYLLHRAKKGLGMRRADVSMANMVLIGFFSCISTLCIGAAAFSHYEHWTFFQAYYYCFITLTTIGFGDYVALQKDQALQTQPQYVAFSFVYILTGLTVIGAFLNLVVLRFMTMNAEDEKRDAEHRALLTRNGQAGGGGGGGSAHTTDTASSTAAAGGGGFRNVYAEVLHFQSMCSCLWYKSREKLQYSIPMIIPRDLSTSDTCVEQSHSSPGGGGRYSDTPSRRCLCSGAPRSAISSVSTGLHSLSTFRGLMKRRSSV

Row | Structure (SMILES) | IC50 [µM]
1 | CC[C@@H](NC(=O)c1cc(C(=O)N(CC)CC)n2c1COCC2)c1ccccc1 [16gn, 3,4-Dihydro-1H-pyrrolo[2,1-c][1,4]oxazine-6,8-dicarboxylic acid 6-diethylamide 8-[((R)-1-phenyl-propyl)-amide]] | 0.25
2 | CC[C@@H](NC(=O)c1cc(C(=O)NCC(C)(C)C)n2c1COCC2)c1ccccc1 [16go, 3,4-Dihydro-1H-pyrrolo[2,1-c][1,4]oxazine-6,8-dicarboxylic acid 6-[(2,2-dimethyl-propyl)-amide] 8-[((R)-1-phenyl-propyl)-amide]] | 0.9
3 | CC[C@@H](NC(=O)c1cc(C(=O)N[C@@H]2CCc3ccccc32)n2c1COCC2)c1ccccc1 [16gp, 3,4-Dihydro-1H-pyrrolo[2,1-c][1,4]oxazine-6,8-dicarboxylic acid 6-(R)-indan-1-ylamide 8-[((R)-1-phenyl-propyl)-amide]] | 0.57
4 | CC[C@@H](NC(=O)c1cc(C(=O)N2CCC[C@@H]2C)n2c1COCC2)c1ccc(F)c(C#N)c1 [16gq, 6-((S)-2-Methyl-pyrrolidine-1-carbonyl)-3,4-dihydro-1H-pyrrolo[2,1-c][1,4]oxazine-8-carboxylic acid [(R)-1-(3-cyano-4-fluoro-phenyl)-propyl]-amide] | 0.49
5 | CC[C@@H](NC(=O)c1cc(C(=O)N[C@H](CC)c2ccccn2)n2c1COCC2)c1ccccc1 [16gr, 3,4-Dihydro-1H-pyrrolo[2,1-c][1,4]oxazine-6,8-dicarboxylic acid 8-[((R)-1-phenyl-propyl)-amide] 6-[((R)-1-pyridin-2-yl-propyl)-amide]] | 0.31
6 | CC[C@@H](NC(=O)c1cc(C(=O)NCc2cccc(C#N)c2)n2c1COCC2)c1ccccc1 [16gs, 3,4-Dihydro-1H-pyrrolo[2,1-c][1,4]oxazine-6,8-dicarboxylic acid 6-(3-cyano-benzylamide) 8-[((R)-1-phenyl-propyl)-amide]] | 0.25
7 | CC[C@@H](NC(=O)c1cc(C(=O)NCc2cnccn2)n2c1COCC2)c1ccccc1 [16gt, 3,4-Dihydro-1H-pyrrolo[2,1-c][1,4]oxazine-6,8-dicarboxylic acid 8-[((R)-1-phenyl-propyl)-amide] 6-[(pyrazin-2-ylmethyl)-amide]] | 0.31
8 | CC[C@@H](NC(=O)c1cc(C(=O)NCc2cncc(F)c2)n2c1COCC2)c1ccccc1 [16gu, 3,4-Dihydro-1H-pyrrolo[2,1-c][1,4]oxazine-6,8-dicarboxylic acid 6-[(5-fluoro-pyridin-3-ylmethyl)-amide] 8-[((R)-1-phenyl-propyl)-amide]] | 0.64
9 | CC[C@@H](NC(=O)c1cc(C(=O)NCc2cccc(S(C)(=O)=O)c2)n2c1COCC2)c1ccccc1 [16gv, 3,4-Dihydro-1H-pyrrolo[2,1-c][1,4]oxazine-6,8-dicarboxylic acid 6-(3-methanesulfonyl-benzylamide) 8-[((R)-1-phenyl-propyl)-amide]] | 1.31
10 | CC[C@@H](NC(=O)c1cc(C(=O)N(C)Cc2ccccn2)n2c1COCC2)c1ccccc1 [16gw, 3,4-Dihydro-1H-pyrrolo[2,1-c][1,4]oxazine-6,8--dicarboxylic acid 6-(methyl-pyridin-2-ylmethyl-amide) 8-[((R)-1-phenyl-propyl)-amide]] | 0.78
11 | CC[C@@H](NC(=O)c1cc(C(=O)NCc2ccccc2S(C)(=O)=O)n2c1COCC2)c1ccccc1 [16gx, 3,4-Dihydro-1H-pyrrolo[2,1-c][1,4]oxazine-6,8-dicarboxylic acid 6-(2-methanesulfonyl-benzylamide) 8-[((R)-1-phenyl-propyl)-amide]] | 0.43
12 | CC[C@@H](NC(=O)c1cc(C(=O)NCc2ccccc2C#N)n2c1COCC2)c1ccccc1 [16gy, 3,4-Dihydro-1H-pyrrolo[2,1-c][1,4]oxazine-6,8-dicarboxylic acid 6-(2-cyano-benzylamide) 8-[((R)-1-phenyl-propyl)-amide]] | 0.32
13 | CC[C@@H](NC(=O)c1cc(C(=O)NCc2cc(OC)cc(OC)c2)n2c1COCC2)c1ccccc1 [16gz, 3,4-Dihydro-1H-pyrrolo[2,1-c][1,4]oxazine-6,8-dicarboxylic acid 6-(3,5-dimethoxy-benzylamide) 8-[((R)-1-phenyl-propyl)-amide]] | 2.2
14 | CC[C@@H](NC(=O)c1cc(C(=O)NCc2ncco2)n2c1COCC2)c1ccccc1 [16ha, 3,4-Dihydro-1H-pyrrolo[2,1-c][1,4]oxazine-6,8-dicarboxylic acid 6-[(oxazol-2-ylmethyl)-amide] 8-[((R)-1-phenyl-propyl)-amide]] | 0.35
15 | CC[C@@H](NC(=O)c1cc(C(=O)NC(C2CC2)C2CC2)n2c1COCC2)c1ccccc1 [16hb, 3,4-Dihydro-1H-pyrrolo[2,1-c][1,4]oxazine-6,8-dicarboxylic acid 6-dicyclopropylmethyl-amide 8-[((R)-1-phenyl-propyl)-amide]] | 0.013
16 | CC[C@@H](NC(=O)c1cc(C(=O)Nc2ccc(F)cn2)n2c1COCC2)c1ccccc1 [16hc, 3,4-Dihydro-1H-pyrrolo[2,1-c][1,4]oxazine-6,8-dicarboxylic acid 6-[(5-fluoro-pyridin-2-yl)-amide] 8-[((R)-1-phenyl-propyl)-amide]] | 0.18
17 | CC[C@@H](NC(=O)c1cc(C(=O)NC(C)c2ncccn2)n2c1COCC2)c1ccccc1 (stereo partly drawn) [16hd, 3,4-Dihydro-1H-pyrrolo[2,1-c][1,4]oxazine-6,8-dicarboxyli cacid 8-[((R)-1-phenyl-propyl)-amide] 6-[(1-pyrimidin-2-yl-ethyl)-amide]] | 0.56
18 | CC[C@@H](NC(=O)c1cc(C(=O)N(C)CC2CC2)n2c1COCC2)c1ccccc1 [16he, 3,4-Dihydro-1H-pyrrolo[2,1-c][1,4]oxazine-6,8-dicarboxylic acid 6-(cyclopropylmethyl-methyl-amide) 8-[((R)-1-phenyl-propyl)-amide]] | 0.49
19 | CC[C@@H](NC(=O)c1cc(C(=O)NCc2ccno2)n2c1COCC2)c1ccccc1 [16hf, 3,4-Dihydro-1H-pyrrolo[2,1-c][1,4]oxazine-6,8-dicarboxylic acid 6-[(isoxazol-5-ylmethyl)-amide] 8-[((R)-1-phenyl-propyl)-amide]] | 0.38
20 | CC[C@@H](NC(=O)c1cc(C(=O)Nc2c(C)noc2C)n2c1COCC2)c1ccccc1 [16hg, 3,4-Dihydro-1H-pyrrolo[2,1-c][1,4]oxazine-6,8-dicarboxylic acid 6-[(3,5-dimethyl-isoxazol-4-yl)-amide] 8-[((R)-1-phenyl-propyl)-amide]] | 0.6
21 | CC[C@@H](NC(=O)c1cc(C(=O)NC(C)c2ccno2)n2c1COCC2)c1ccccc1 (stereo partly drawn) [16hh, 3,4-Dihydro-1H-pyrrolo[2,1-c][1,4]oxazine-6,8-dicarboxylic acid 6-[(1-isoxazol-5-yl-ethyl)-amide] 8-[((R)-1-phenyl-propyl)-amide]] | 1
22 | CC[C@@H](NC(=O)c1cc(C(=O)NCC2(O)CC2)n2c1COCC2)c1ccccc1 [16hi, 3,4-Dihydro-1H-pyrrolo[2,1-c][1,4]oxazine-6,8-dicarboxylic acid 6-[(1-hydroxy-cyclopropylmethyl)-amide] 8-[((R)-1-phenyl-propyl)-amide]] | 1.1
23 | CC[C@@H](NC(=O)c1cc(C(=O)NCc2ncccn2)n2c1COCC2)c1ccccc1 [16hj, 3,4-Dihydro-1H-pyrrolo[2,1-c][1,4]oxazine-6,8-dicarboxylic acid 8-[((R)-1-phenyl-propyl)-amide] 6-[(pyrimidin-2-ylmethyl)-amide]] | 0.53
24 | CC[C@@H](NC(=O)c1cc(C(=O)N(CCO)CC2CC2)n2c1COCC2)c1ccccc1 [16hk, 3,4-Dihydro-1H-pyrrolo[2,1-c][1,4]oxazine-6,8-dicarboxylic acid 6-[cyclopropylmethyl-(2-hydroxy-ethyl)-amide] 8-[((R)-1-phenyl-propyl)-amide]] | 1.4
25 | CC[C@@H](NC(=O)c1cc(C(=O)NC(C)c2cnccn2)n2c1COCC2)c1ccccc1 (stereo partly drawn) [16hl, 3,4-Dihydro-1H-pyrrolo[2,1-c][1,4]oxazine-6,8-dicarboxylic acid 8-[((R)-1-phenyl-propyl)-amide] 6-[(1-pyrazin-2-yl-ethyl)-amide]] | 0.17
26 | CC[C@@H](NC(=O)c1cc(C(=O)N[C@H](CC)c2cccnc2C(F)(F)F)n2c1COCC2)c1ccccc1 [16hm, 3,4-Dihydro-1H-pyrrolo[2,1-c][1,4]oxazine-6,8-dicarboxylic acid 8-[((R)-1-phenyl-propyl)-amide] 6-{[(R)-1-(2-trifluoromethyl-pyridin-3-yl)-propyl]-amide}] | 0.66
27 | CC[C@@H](NC(=O)c1cc(C(=O)N[C@H](CC)c2cncc(C(F)(F)F)c2)n2c1COCC2)c1ccccc1 [16hn, 3,4-Dihydro-1H-pyrrolo[2,1-c][1,4]oxazine-6,8-dicarboxylic acid 8-[((R)-1-phenyl-propyl)-amide] 6-{[(R)-1-(5-trifluoromethyl-pyridin-3-yl)-propyl]-amide}] | 0.69
28 | CCC(NC(=O)c1cc(C(=O)N[C@H](CC)c2ccccc2)c2n1CCOC2)c1ccc(C)nc1 (stereo partly drawn) [16ho, 3,4-Dihydro-1H-pyrrolo[2,1-c][1,4]oxazine-6,8-dicarboxylic acid 6-{[1-(6-methyl-pyridin-3-yl)-propyl]-amide} 8-[((R)-1-phenyl-propyl)-amide]] | 0.73
29 | CC[C@H](NC(=O)c1cc(C(=O)N[C@H](CC)c2ccccc2)c2n1CCOC2)c1ccc(OC)nc1 [16hp, 3,4-Dihydro-1H-pyrrolo[2,1-c][1,4]oxazine-6,8-dicarboxylic acid 6-{[(S)-1-(6-methoxy-pyridin-3-yl)-propyl]-amide} 8-[((R)-1-phenyl-propyl)-amide]] | 0.56
30 | CCOC(=O)[C@H](NC(=O)c1cc(C(=O)N[C@H](CC)c2ccccc2)c2n1CCOC2)c1ccccc1 [16hq, (R)-Phenyl-{[8-((R)-1-phenyl-propylcarbamoyl)-3,4-dihydro-1H-pyrrolo[2,1-c][1,4]oxazine-6-carbonyl]-amino}-acetic acid ethyl ester] | 0.32
